The text below walks through data of ChEMBL document CHEMBL4680188 (Eur J Med Chem, 2020).

Series [1] has as its target T1, 5-hydroxytryptamine receptor 2C (Homo sapiens) (UniProt P28335).
T1 sequence (whole entry): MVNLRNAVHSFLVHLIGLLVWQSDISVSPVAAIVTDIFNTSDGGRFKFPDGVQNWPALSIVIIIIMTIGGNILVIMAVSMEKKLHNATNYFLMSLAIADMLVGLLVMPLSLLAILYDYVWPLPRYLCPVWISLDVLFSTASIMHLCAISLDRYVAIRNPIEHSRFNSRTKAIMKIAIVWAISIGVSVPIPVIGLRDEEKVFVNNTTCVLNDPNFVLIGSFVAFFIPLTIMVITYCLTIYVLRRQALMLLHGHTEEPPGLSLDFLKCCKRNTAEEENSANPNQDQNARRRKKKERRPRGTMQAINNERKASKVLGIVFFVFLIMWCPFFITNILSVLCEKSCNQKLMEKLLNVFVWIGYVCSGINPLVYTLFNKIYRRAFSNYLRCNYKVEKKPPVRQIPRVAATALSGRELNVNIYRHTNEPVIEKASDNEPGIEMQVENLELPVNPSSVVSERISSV
Put plainly: Binding affinity to human 5HT2C expressed in CHO cells. It counts as cell-based.

For series [2], the target named is T2, Melatonin receptor type 1A (Homo sapiens, UniProt P48039). The experiment in a line: Displacement of 2-[125l]-lodomelatonin from human MT1 expressed in CHO cells incubated for 120 mins by radioligand binding assay. It counts as cell-based.
T2 sequence (P48039 whole entry): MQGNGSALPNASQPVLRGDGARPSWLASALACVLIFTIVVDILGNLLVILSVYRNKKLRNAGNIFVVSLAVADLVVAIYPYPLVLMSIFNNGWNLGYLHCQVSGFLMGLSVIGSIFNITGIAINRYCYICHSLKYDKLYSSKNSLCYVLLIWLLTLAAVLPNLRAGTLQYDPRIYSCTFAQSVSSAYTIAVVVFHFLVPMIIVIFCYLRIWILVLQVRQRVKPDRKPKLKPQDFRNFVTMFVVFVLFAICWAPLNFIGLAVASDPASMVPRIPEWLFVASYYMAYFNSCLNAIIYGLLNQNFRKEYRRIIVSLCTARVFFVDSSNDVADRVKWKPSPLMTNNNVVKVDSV
In series [3] the target is T3, Melatonin receptor type 1B (Homo sapiens, UniProt P49286).
T3 sequence (P49286 whole entry): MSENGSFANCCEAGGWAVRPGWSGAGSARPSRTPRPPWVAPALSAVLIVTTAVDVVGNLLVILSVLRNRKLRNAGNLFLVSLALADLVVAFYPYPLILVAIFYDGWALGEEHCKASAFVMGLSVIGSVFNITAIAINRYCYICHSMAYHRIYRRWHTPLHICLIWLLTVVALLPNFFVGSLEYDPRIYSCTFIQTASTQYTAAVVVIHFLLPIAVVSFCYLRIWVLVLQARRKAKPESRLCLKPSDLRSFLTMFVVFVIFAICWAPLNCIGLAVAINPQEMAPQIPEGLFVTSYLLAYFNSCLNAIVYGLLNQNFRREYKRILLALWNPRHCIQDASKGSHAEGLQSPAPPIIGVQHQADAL
The experiment in a line: Displacement of 2-[125l]-lodomelatonin from human MT2 expressed in CHO cells incubated for 120 mins by radioligand binding assay. It counts as cell-based.

For series [4], the target named is T2, Melatonin receptor type 1A. Put plainly: Agonist activity at human MT1 expressed in CHO cell membrane incubated for 1 hr by [35S]GTPgammaS binding assay. It counts as functional, cell membranes.
In series [5] the target is T3, Melatonin receptor type 1B. The experiment in a line: Agonist activity at human MT2 expressed in CHO cell membrane incubated for 1 hr by [35S]GTPgammaS binding assay. It counts as functional, cell membranes.
The nature of series [6]: Oral bioavailability in rat. The following applies: in vivo. It counts as ADME, organism-based.
Series [7] is described as follows: Oral bioavailability in human. It counts as ADME, organism-based. Conditions: in vivo.
The nature of series [8]: Permeability in human Caco-2 cells. It counts as ADME, cell-based.

The source made the active and inactive calls. The rule behind the calls is not given here.

As to `CCC(=O)NCCc1nncc2ccc(OC)cc12`, the outcome in series [1] was inactive. Also, the inhibition constant (Ki) in series [2] worked out at 1470 nM; in series [3] it was 414 nM. In addition, the EC50 in series [4] is above 10000 nM; in series [5] it was 327 nM. Further, the bioavailability worked out at 54% in series [6] and 46% in series [7]. Moreover, in series [8], the permeability was 100%.
For the compound `CCC(=O)NCCc1ncnc2ccc(OC)cc12`, the outcome in series [1] was inactive. Moreover, the figures for the Ki in series [2] and in series [3] were 210 nM and 41.1 nM, respectively. For the same compound, the EC50 was 432 nM in series [4] and 238 nM in series [5].
For `COc1ccc2ncnc(CCNC(=O)C3CC3)c2c1`, the outcome in series [1] was inactive. Also, the Ki turned out to be 549 nM in series [2] and 398 nM in series [3].
Turning to `COc1ccc2ncnc(NCCNC(C)=O)c2c1`, the outcome in series [1] was inactive. Further, the inhibition constant Ki in series [2] and in series [3] was above 10000 nM throughout.
In the case of `COc1ccc2nc(-c3ccccc3)nc(CCNC(C)=O)c2c1`, the outcome in series [1] was inactive. The Ki was determined as 896 nM in series [2] and 15.6 nM in series [3]. Further, the EC50 in series [4] was above 10000 nM; in series [5] it was 237 nM. In addition, the bioavailability in series [6] is 2%; in series [7], 7%. Besides, the permeability in series [8] stood at 100%.
Take `COc1ccc2ncnc(N3CCN(C(=O)C4CC4)CC3)c2c1`: in series [1], the outcome was inactive. The Ki in series [2] is above 10000 nM; in series [3], 3300 nM.
For `COc1cccc(-c2nc(CCNC(C)=O)c3cc(OC)ccc3n2)c1`, in series [1], the outcome was inactive. In addition, the Ki in series [2] amounted to 500 nM; in series [3] it was 46 nM. Besides, the values for the EC50 in series [4] and in series [5] were 321 nM and 543 nM, respectively.
As to `COc1ccc2cccc(CCNC(C)=O)c2c1` [AGOMELATINE], the results for the bioavailability in series [6] and in series [7] were 13% and 11%, respectively. In series [8], the permeability is on record as 100%.
As for `COc1ccc2ncnc(CCNC(C)=O)c2c1`, the outcome in series [1] was inactive. Moreover, the Ki was 230 nM in series [2] and 115 nM in series [3]. Further, the results for the concentration giving a half-maximal response (EC50) in series [4] and in series [5] were 2600 nM and 835 nM, respectively. In addition, the bioavailability turned out to be 92% in series [6] and 97% in series [7]. Besides, the permeability in series [8] is 100%.
In the case of `CCCC(=O)NCCc1ncnc2ccc(OC)cc12`, in series [1], the result was inactive. In addition, the figures for the Ki in series [2] and in series [3] were 320 nM and 41 nM, respectively. Moreover, the EC50 was 652 nM in series [4] and 219 nM in series [5]. Also, the results for the bioavailability in series [6] and in series [7] were 69% and 36%, respectively.
Turning to `CCNC(=O)N1CCN(c2ncnc3ccc(OC)cc23)CC1`, the result in series [1] was inactive. In addition, the Ki in series [2] was above 10000 nM; in series [3] it was 2800 nM.
Consider `COc1ccc2cnnc(CCNC(C)=O)c2c1`, for which, in series [1], the outcome was inactive. The Ki in series [2] came to 2110 nM; in series [3] it was 799 nM. Also, the values for the half-maximal effective concentration (EC50) in series [4] and in series [5] were above 10000 nM and 428 nM, respectively. In addition, the permeability in series [8] is on record as 2%.
Turning to `CCCC(=O)NCCc1nncc2ccc(OC)cc12`, in series [1], the outcome was inactive. For the same compound, the inhibition constant Ki was determined as 1140 nM in series [2] and 108 nM in series [3]. In addition, the EC50 in series [4] is above 10000 nM; in series [5] it was 89 nM. Further, the bioavailability in series [6] came out at 33%; in series [7], 36%. Also, the permeability in series [8] was 100%.
As for `COc1ccc2cnnc(CCNC(=O)C3CC3)c2c1`, the result in series [1] was inactive. Besides, the values for the Ki in series [2] and in series [3] were 3020 nM and 1370 nM, respectively. In addition, the EC50 in series [4] was above 10000 nM; in series [5], 1250 nM.
